Source: patent US10227323B2, “Glucosylceramide synthase inhibitors for the treatment of diseases” (BIOMARIN PHARMACEUTICAL INC., priority 2013, dated 2019)

These compounds were tested against T1, GCS (Canis lupus familiaris, UniProt A0A8I3MXG6) (assay: Assay 1: GCS Enzymatic Assay (MDCK cell lysate, C6-NBD-Ceramide, LC/MS)). Settings: Table 2; data marked by *.
T1 sequence (A0A8I3MXG6 1-394): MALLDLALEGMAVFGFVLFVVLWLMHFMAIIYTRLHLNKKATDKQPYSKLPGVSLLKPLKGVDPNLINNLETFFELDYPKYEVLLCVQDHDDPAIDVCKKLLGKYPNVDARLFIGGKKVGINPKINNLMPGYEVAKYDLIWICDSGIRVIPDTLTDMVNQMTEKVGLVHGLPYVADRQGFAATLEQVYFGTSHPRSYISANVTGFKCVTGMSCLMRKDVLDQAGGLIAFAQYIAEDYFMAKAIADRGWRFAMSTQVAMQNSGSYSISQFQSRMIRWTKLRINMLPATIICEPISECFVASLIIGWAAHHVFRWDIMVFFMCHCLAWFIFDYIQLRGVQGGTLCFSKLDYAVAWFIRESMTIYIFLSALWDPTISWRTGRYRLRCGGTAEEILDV
Assay type: biochemical, canine
In short: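 LC/MS/MS measurement of glucosylceramide and NBD-ceramide after a 1 h, 37 °C reaction with 100 μM UDP-glucose and 10 μM C6-NBD-ceramide gave IC50s or percent inhibition.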

Structure (SMILES) | % inhibition generated from Assay 1
Cn1ncc2ccc(-c3cccc(C(=O)C(=O)N[C@H](CN4CCCC4)[C@H](O)c4ccc(OC5CC5)c(Cl)c4)c3)cc21 [Example 261, N-((1R,2R)-1-(3-chloro-4-cyclopropoxyphenyl)-1-hydroxy-3-(pyrrolidin-1-yl)propan-2-yl)-2-(3-(1-methyl-1H-indazol-6-yl)phenyl)-2-oxoacetamide] | A* (the compound had a % inhibition of a percent inhibition of greater than or equal to about 50%)
O=C(N[C@H](CN1CCCC1)[C@H](O)c1ccc(OC2CC2)c(Cl)c1)C(=O)N1CCN(c2ccc(F)cc2)CC1 [Example 262, N-((1R,2R)-1-(3-chloro-4-cyclopropoxyphenyl)-1-hydroxy-3-(pyrrolidin-1-yl)propan-2-yl)-2-(4-(4-fluorophenyl)piperazin-1-yl)-2-oxoacetamide] | B* (the compound had a % inhibition of greater than or equal to about 3% but less than about 50%)
O=C(N[C@H](CN1CCCC1)[C@H](O)c1ccc(OC2CC2)c(C(F)(F)F)c1)C(=O)c1ccc(-c2ccc(F)cc2)cc1 [Example 265, N-((1R,2R)-1-(4-cyclopropoxy-3-(trifluoromethyl)phenyl)-1-hydroxy-3-(pyrrolidin-1-yl)propan-2-yl)-2-(4′-fluoro-[1,1′-biphenyl]-4-yl)-2-oxoacetamide] | B* (the compound had a % inhibition of greater than or equal to about 3% but less than about 50%)

Same assay, conditions: Table 2; data without asterisk; read-out: IC50 (nM) generated from Assay 1

IC50 [nM] | Structure (SMILES)
< 50 | O=C(N[C@H](CN1CCCC1)[C@H](O)c1cc(F)c2c(c1)OCCO2)C(=O)c1ccc(C2CCOCC2)cc1 [Compound 373, N-((1R,2R)-1-(8-fluoro-2,3-dihydrobenzo[b][1,4]dioxin-6-yl)-1-hydroxy-3-(pyrrolidin-1-yl)propan-2-yl)-2-oxo-2-(4-(tetrahydro-2H-pyran-4-yl)phenyl)acetamide]
50 to 5000 | O=C(N[C@H](CN1CCCC1)[C@H](O)c1ccc(OC2CC2)cc1)C(=O)c1ccc(N2CCOCC2)cc1 [Compound 374, N-((1R,2R)-1-(4-cyclopropoxyphenyl)-1-hydroxy-3-(pyrrolidin-1-yl)propan-2-yl)-2-(4-morpholinophenyl)-2-oxoacetamide]
50 to 5000 | O=C(N[C@H](CN1CCCC1)[C@H](O)c1ccc(OC2CC2)c(Cl)c1)C(=O)c1ccc(N2CCC2)cc1 [Compound 375, 2-(4-(azetidin-1-yl)phenyl)-N-((1R,2R)-1-(3-chloro-4-cyclopropoxyphenyl)-1-hydroxy-3-(pyrrolidin-1-yl)propan-2-yl)-2-oxoacetamide]
< 50 | O=C(N[C@H](CN1CCCC1)[C@H](O)c1ccc(OC2CC2)c(Cl)c1)C(=O)c1ccc(F)cc1 [Compound 376, N-((1R,2R)-1-(3-chloro-4-cyclopropoxyphenyl)-1-hydroxy-3-(pyrrolidin-1-yl)propan-2-yl)-2-(4-fluorophenyl)-2-oxoacetamide]
< 50 | O=C(N[C@H](CN1CCCC1)[C@H](O)c1ccc(OC2CC2)c(Cl)c1)C(=O)c1cc2ccccc2s1 [Compound 377, 2-(benzo[b]thiophen-2-yl)-N-((1R,2R)-1-(3-chloro-4-cyclopropoxyphenyl)-1-hydroxy-3-(pyrrolidin-1-yl)propan-2-yl)-2-oxoacetamide]
< 50 | C#Cc1ccc(C(=O)C(=O)N[C@H](CN2CCCC2)[C@H](O)c2ccc(OC3CC3)c(F)c2)cc1 [Compound 378, N-((1R,2R)-1-(4-cyclopropoxy-3-fluorophenyl)-1-hydroxy-3-(pyrrolidin-1-yl)propan-2-yl)-2-(4-ethynylphenyl)-2-oxoacetamide]
< 50 | O=C(N[C@H](CN1CCCC1)[C@H](O)c1cc(F)c2c(c1)OCCO2)C(=O)c1ccc(F)cc1 [Compound 379, N-((1R,2R)-1-(8-fluoro-2,3-dihydrobenzo[b][1,4]dioxin-6-yl)-1-hydroxy-3-(pyrrolidin-1-yl)propan-2-yl)-2-(4-fluorophenyl)-2-oxoacetamide]
< 50 | CN(C(=O)C(=O)c1ccc(-c2ccc(F)cc2)cc1)[C@H](CN1CCCC1)[C@H](O)c1ccc(OC2CC2)c(F)c1 [Compound 382, N-((1R,2R)-1-(4-cyclopropoxy-3-fluorophenyl)-1-hydroxy-3-(pyrrolidin-1-yl)propan-2-yl)-2-(4′-fluoro-[1,1′-biphenyl]-4-yl)-N-methyl-2-oxoacetamide]
< 50 | O=C(N[C@H](CN1CCCC1)[C@H](O)c1ccc(OC2CC2)c(Cl)c1)C(=O)c1ccc(-c2ccc(F)cc2)cn1 [Example 264, N-((1R,2R)-1-(3-chloro-4-cyclopropoxyphenyl)-1-hydroxy-3-(pyrrolidin-1-yl)propan-2-yl)-2-(5-(4-fluorophenyl)pyridin-2-yl)-2-oxoacetamide]
< 50 | O=C(N[C@H](CN1CCCC1)[C@H](O)c1ccc2c(c1)OCCO2)C(=O)c1ccc(-c2ccc(Cl)cc2)cc1 [Example 267, 2-(4′-chloro-[1,1′-biphenyl]-4-yl)-N-((1R,2R)-1-(2,3-dihydrobenzo[b][1,4]dioxin-6-yl)-1-hydroxy-3-(pyrrolidin-1-yl)propan-2-yl)-2-oxoacetamide]
< 50 | O=C(N[C@H](CN1CCCC1)[C@H](O)c1ccc2c(c1F)OCCO2)C(=O)c1ccc(-c2ccc(F)cc2)cc1 [Example 268, N-((1R,2R)-1-(5-fluoro-2,3-dihydrobenzo[b][1,4]dioxin-6-yl)-1-hydroxy-3-(pyrrolidin-1-yl)propan-2-yl)-2-(4′-fluoro-[1,1′-biphenyl]-4-yl)-2-oxoacetamide]
< 50 | CC(C)n1ccc2cc(-c3ccc(C(=O)C(=O)N[C@H](CN4CCCC4)[C@H](O)c4cc(F)c5c(c4)OCCO5)cc3)ccc21 [Example 269, N-((1R,2R)-1-(8-fluoro-2,3-dihydrobenzo[b][1,4]dioxin-6-yl)-1-hydroxy-3-(pyrrolidin-1-yl)propan-2-yl)-2-(4-(1-isopropyl-1H-indol-5-yl)phenyl)-2-oxoacetamide]
< 50 | O=C(N[C@H](CN1CCCC1)[C@H](O)c1ccc(OC2CC2)c(Cl)c1)C(=O)c1ccc(-c2ccc(Cl)cc2)cc1 [Example 270, N-((1R,2R)-1-(3-chloro-4-cyclopropoxyphenyl)-1-hydroxy-3-(pyrrolidin-1-yl)propan-2-yl)-2-(4′-chloro-[1,1′-biphenyl]-4-yl)-2-oxoacetamide]

The remaining lines, values behind:

Structure (SMILES) | IC50 [nM]
O=C(N[C@H](CN1CCCC1)[C@H](O)c1ccc(OC2CC2)c(Cl)c1)C(=O)C1CCN(c2ccc(F)cc2)CC1 [Compound 380, N-((1R,2R)-1-(3-chloro-4-cyclopropoxyphenyl)-1-hydroxy-3-(pyrrolidin-1-yl)propan-2-yl)-2-(1-(4-fluorophenyl)piperidin-4-yl)-2-oxoacetamide] | 50 to 5000
O=C(N[C@H](CN1CCC1)[C@H](O)c1ccc(OC2CC2)c(F)c1)C(=O)c1cc2ccc(Cl)cc2s1 [Compound 381, N-((1R,2R)-3-(azetidin-1-yl)-1-(4-cyclopropoxy-3-fluorophenyl)-1-hydroxypropan-2-yl)-2-(6-chlorobenzo[b]thiophen-2-yl)-2-oxoacetamide] | < 50
CN(C(=O)C(=O)c1cc2ccc(Cl)cc2s1)[C@H](CN1CCCC1)[C@H](O)c1ccc(OC2CC2)c(F)c1 [Compound 383, 2-(6-chlorobenzo[b]thiophen-2-yl)-N-((1R,2R)-1-(4-cyclopropoxy-3-fluorophenyl)-1-hydroxy-3-(pyrrolidin-1-yl)propan-2-yl)-N-methyl-2-oxoacetamide] | < 50
CC(C)n1ncc2cc(-c3ccc(C(=O)C(=O)N[C@H](CN4CCCC4)[C@H](O)c4ccc(OC5CC5)c(Cl)c4)cc3)ccc21 [Example 258, N-((1R,2R)-1-(3-chloro-4-cyclopropoxyphenyl)-1-hydroxy-3-(pyrrolidin-1-yl)propan-2-yl)-2-(4-(1-isopropyl-1H-indazol-5-yl)phenyl)-2-oxoacetamide] | < 50
CC(C)n1cc2cc(-c3ccc(C(=O)C(=O)N[C@H](CN4CCCC4)[C@H](O)c4ccc(OC5CC5)c(Cl)c4)cc3)ccc2n1 [Example 259, N-((1R,2R)-1-(3-chloro-4-cyclopropoxyphenyl)-1-hydroxy-3-(pyrrolidin-1-yl)propan-2-yl)-2-(4-(2-isopropyl-2H-indazol-5-yl)phenyl)-2-oxoacetamide] | < 50
O=C(N[C@H](CN1CCCC1)[C@H](O)c1ccc(OC2CC2)c(Cl)c1)C(=O)c1ccc(-c2ccc3sc(Cl)cc3c2)cc1 [Example 263, N-((1R,2R)-1-(3-chloro-4-cyclopropoxyphenyl)-1-hydroxy-3-(pyrrolidin-1-yl)propan-2-yl)-2-(4-(2-chlorobenzo[b]thiophen-5-yl)phenyl)-2-oxoacetamide] | < 50
CC(C)n1ccc2cc(-c3ccc(C(=O)C(=O)N[C@H](CN4CCCC4)[C@H](O)c4ccc(OC5CC5)c(Cl)c4)cc3)ccc21 [Example 266, N-((1R,2R)-1-(3-chloro-4-cyclopropoxyphenyl)-1-hydroxy-3-(pyrrolidin-1-yl)propan-2-yl)-2-(4-(1-isopropyl-1H-indo1-5-yl)phenyl)-2-oxoacetamide] | < 50
CC(C)n1cnc2cc(-c3ccc(C(=O)C(=O)N[C@H](CN4CCCC4)[C@H](O)c4ccc(OC5CC5)c(Cl)c4)cc3)ccc21 [Example 271, N-((1R,2R)-1-(3-chloro-4-cyclopropoxyphenyl)-1-hydroxy-3-(pyrrolidin-1-yl)propan-2-yl)-2-(4-(1-isopropyl-1H-benzo[d]imidazol-5-yl)phenyl)-2-oxoacetamide] | < 50
